Here are results for two molecules from patent US8518892B2, “Methods to treat symptoms of pathophysiology related to body mass” (Board of Supervisors of Louisiana State University and …, priority 2005, dated 2013).

Assay [1] concerns phosphorylation of Erk1 in fully differentiated 3T3-L1 adipocytes. As to the kind of experiment: Erk phosphorylation in 3T3-L1 adipocytes. As to conditions: 1 μg/ml Enho1^34-76, 15 minutes after application. In kind it is cell-based. As to the method:
FIG. 11A illustrates the increase in Erk phosphorylation in 3T3-L1 adipocytes 15 minutes after the application of the secreted portion of protein Enho1 (Enho1^34-76; SEQ ID NO:10).
(§1) An experiment was conducted to test the use of a recombinant or synthetic forms of the short secreted polypeptide Enho1^34-76 (SEQ ID NO:10). A study was conducted where the response of adipocytes and hepatocytes, two potential sites of Enho1 action, to synthetic Enho1^34-76 was analyzed with changes in extracellular regulated kinase (ERK) as the measured response. ERK1/2 and p38α are important in the regulation of lipolysis and thermogenesis in adipocytes.
(§2) In addition, a shorter, second peptide was synthesized using amino acids 39 through 76 of SEQ ID NO:2, and called “Enho1^39-76” (SEQ ID NO:11).

The test system of assay [2] is phosphorylation of Erk1 in HepG2 cells. The experiment in a line: Erk phosphorylation in HepG2 cells. As to conditions: 1 μg/ml Enho1^34-76, 15 minutes after application. In kind it is cell-based. As to the method: FIG. 11B illustrates the increase in Erk phosphorylation in HepG2 hepatocytes 15 minutes after the application of the secreted protein Enho1 (Enho1^34-76; SEQ ID NO:10).
as §1, §2

Assay [3] concerns Lep^ob/Lep^ob mice. As to the kind of experiment: Leptin treatment of Lep^ob/Lep^ob mice, hepatic AK009710 (Enho1) mRNA by RealTime PCR. The conditions noted are these: liver of Lep^ob/Lep^ob mice, 4 injections of 0.5 mg/g leptin over 2 days, vs saline. Format: in vivo, mouse. Here is the method:
FIG. 3C illustrates the amount of hepatic AK009710 mRNA expression (given as a percent of expression with saline) in leptin-deficient Lep^ob/Lep^ob mice injected 4 times over 2 days with either saline or leptin (0.5 mg/g).
Quantitative RealTime PCR confirmed the microarray data showing a tendency for a modest reduction in the expression of AK009710 in liver of Mc3rKO (FIG. 3A). […] (FIG. 3C). […] Moreover, AK009710 expression correlated negatively with fasting glucose in diet-induced obese B6 mice (n=13, R^2=0.67, P<0.001) (data not shown).
Oligonucleotide primers targeted to AK009710 mRNA were utilized to measure AK009710 gene expression in liver cDNA from various mouse models of obesity and insulin resistance. Sequences of primers were: sense 5-[…]-3′ (SEQ ID NO:3), antisense 5′-[…]-3′ (SEQ ID NO:4), probe 5′-6FAM-[…]-BHQ-3′ (SEQ ID NO:5). In agreement with the initial microarray result, AK009710 mRNA was down regulated in the liver of Mc3r−/− mice compared to WT mice (by 55%, p<0.05; FIG. 3A). Next was examined the AK009710 liver mRNA expression in two other models of obesity: Mc4r−/− mice and leptin-deficient Lep^ob/Lep^ob mice. AK009710 mRNA was expressed at approximately 10-fold lower levels in both of these models compared to wild-type mice (WT) (FIG. 3B). […]

Turning to “Enho1^34-76: synthetic peptide corresponding to amino acids 34 through 76 of SEQ ID NO:2, the mouse protein; secreted portion of Enho1 (CHSRSADVDSLSESSPNSSPGPCPEKAPPPQKPSHEGSYLLQP; mus sp.)”, the “phosphorylation of Erk1” value in assay [1] and in assay [2] was “robust increase” each time.

B1: leptin (protein, UniProt P41160 22-167, looked up)
Leptin: VPIQKVQDDTKTLIKTIVTRINDISHTQSVSAKQRVTGLDFIPGLHPILSLSKMDQTLAVYQQVLTSLPSQNVLQIANDLENLRDLLHLLAFSKSCSLPQTSGLQKPESLDGVLEASLYSTEVVALSRLQGSLQDILQQLDVSPEC
notes: adipocytokine, injected into Lep^ob/Lep^ob mice
B1: the “hepatic Enho1 (AK009710) mRNA expression” value in assay [3] is “significantly increased”.
